Measurements from publication PMC9586306 (Proceedings of the National Academy of Sciences of the …, 2022).

Tests used:
[1] = target: A/California/04/2009 (H1N1) neuraminidase (09N1) (Influenza A virus (A/California/04/2009(H1N1)), UniProt C3W5S3); format: biochemical; conditions: read-out: IC50 ± SEM
[2] = target: IBV NA (B/Singapore/222/1979) (Influenza B virus, UniProt P16203); format: biochemical, Influenza B virus B/Singapore/222/1979; conditions: read-out: IC50 ± SEM
IBV NA (B/Singapore/222/1979), sequence (P16203 77-466 limits assumed): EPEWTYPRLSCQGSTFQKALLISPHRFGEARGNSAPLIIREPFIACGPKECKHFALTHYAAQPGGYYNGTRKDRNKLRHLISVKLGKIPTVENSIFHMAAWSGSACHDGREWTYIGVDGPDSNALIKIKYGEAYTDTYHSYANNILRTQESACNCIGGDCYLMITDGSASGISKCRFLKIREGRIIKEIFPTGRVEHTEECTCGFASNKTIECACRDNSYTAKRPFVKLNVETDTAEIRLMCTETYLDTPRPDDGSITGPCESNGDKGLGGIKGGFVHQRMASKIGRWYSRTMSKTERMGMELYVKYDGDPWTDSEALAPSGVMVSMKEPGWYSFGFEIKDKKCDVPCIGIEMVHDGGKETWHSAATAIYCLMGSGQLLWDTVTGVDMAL

`CCC(CC)[C@H](NC(C)=O)[C@@H]1[C@H](O)[C@@H](C(=O)O)C[C@H]1N=C(N)N` [Peramivir, peramivir] gave an IC50 [1] of 0.45 ± 0.08 nM and an IC50 [2] of 16.9 ± 1.94 nM.
